Assay results: US20130280741A1, “METHOD AND SYSTEM OF DETECTING DIOXIN-LIKE COMPOUNDS” (priority 2012, published 2013)

Key:
AHR-RL and ARNT-YFP = target: T1, AHR-RL and ARNT-YFP (Homo sapiens, UniProt P35869); test: BRET assay in AAPA cells; assay type: cell-based
T1 construct: expressed in transfected cells
Experimental: (§1) Tetracycline-regulated expression cells (T-REx™ cells) (Invitrogen, Carlsbad, Calif., USA) were transfected with AHR-RL, AIP-HIS and P23-HIS by lipofectamin 2000™ transfection reagent (Invitrogen, Carlsbad, Calif., USA) according to the manufacturer's instructions. Transfected cells were cultured in DMEM growth medium (Gibco, USA) supplemented with 10% fetal bovine serum (FBS), (Gibco, USA), 5 μg/ml Blasticidin, 250 μg/ml Zeocin and 500 μg/ml G418. The optimal cell lines were then transfected with ARNT-YFP or HSP90-YFP and selected with 200 μg/ml Hygromycin to obtain a stable cell line transfected with ARNT-YFP (called as “AAPA cells”) and obtain a stable cell line transfected with HSP90-YFP (called as “AAPH cells”).
For the inducible protein expression and AHR complex formation, the AAPA cells, which were stably co-transfected with AHR-RL, AIP-HIS, P23-HIS and ARNT-YFP, were prepared following the method as described in Example 2 and then were treated with 1 μg/ml tetracycline for 48 hours. Then, the treated cells were washed by phosphate-buffered saline (PBS) twice.
For dioxin detection, different concentrations of 3-methylcholanthrene (3MC) (Boehringer Mannheim, Mannheim, Germany) were mixed with the cells and cultured in a 96-well white polystyrene plate (Corning, USA) at 37° C. for 1 hour. The BRET signals were determined by addition of coelenterazine, a substrate of Renilla Luciferase, to a final concentration of […].

AHR-RL and HSP90-YFP = target: T2, AHR-RL and HSP90-YFP (Homo sapiens, UniProt P35869); test: BRET assay in AAPH cells; assay type: cell-based; conditions: different concentrations, 37° C., dose-dependent (FIG. 2C)
T2 construct: expressed in transfected cells
T2 sequence (P35869 11-848): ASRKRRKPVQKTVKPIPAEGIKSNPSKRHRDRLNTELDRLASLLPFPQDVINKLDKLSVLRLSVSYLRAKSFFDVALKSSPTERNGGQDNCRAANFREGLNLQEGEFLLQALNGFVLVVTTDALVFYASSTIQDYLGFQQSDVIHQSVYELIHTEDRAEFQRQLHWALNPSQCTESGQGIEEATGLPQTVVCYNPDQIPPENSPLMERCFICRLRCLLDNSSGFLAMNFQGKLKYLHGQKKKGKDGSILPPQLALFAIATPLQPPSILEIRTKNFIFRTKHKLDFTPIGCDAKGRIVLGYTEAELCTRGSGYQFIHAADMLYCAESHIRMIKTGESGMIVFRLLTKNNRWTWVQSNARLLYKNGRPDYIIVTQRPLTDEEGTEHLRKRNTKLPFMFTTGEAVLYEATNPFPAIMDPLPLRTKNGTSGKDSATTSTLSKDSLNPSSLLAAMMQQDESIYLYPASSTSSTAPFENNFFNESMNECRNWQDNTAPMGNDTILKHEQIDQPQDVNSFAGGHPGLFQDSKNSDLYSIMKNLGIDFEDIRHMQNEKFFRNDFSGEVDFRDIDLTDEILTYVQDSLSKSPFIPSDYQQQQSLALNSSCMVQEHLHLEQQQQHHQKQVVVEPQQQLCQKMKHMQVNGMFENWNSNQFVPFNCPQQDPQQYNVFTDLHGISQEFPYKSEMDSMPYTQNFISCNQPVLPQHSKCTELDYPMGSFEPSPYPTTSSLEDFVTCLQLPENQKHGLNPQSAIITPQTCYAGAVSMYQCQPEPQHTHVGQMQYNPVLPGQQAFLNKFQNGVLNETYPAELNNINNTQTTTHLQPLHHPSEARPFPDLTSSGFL
T2 sequence (P08238 whole entry partner): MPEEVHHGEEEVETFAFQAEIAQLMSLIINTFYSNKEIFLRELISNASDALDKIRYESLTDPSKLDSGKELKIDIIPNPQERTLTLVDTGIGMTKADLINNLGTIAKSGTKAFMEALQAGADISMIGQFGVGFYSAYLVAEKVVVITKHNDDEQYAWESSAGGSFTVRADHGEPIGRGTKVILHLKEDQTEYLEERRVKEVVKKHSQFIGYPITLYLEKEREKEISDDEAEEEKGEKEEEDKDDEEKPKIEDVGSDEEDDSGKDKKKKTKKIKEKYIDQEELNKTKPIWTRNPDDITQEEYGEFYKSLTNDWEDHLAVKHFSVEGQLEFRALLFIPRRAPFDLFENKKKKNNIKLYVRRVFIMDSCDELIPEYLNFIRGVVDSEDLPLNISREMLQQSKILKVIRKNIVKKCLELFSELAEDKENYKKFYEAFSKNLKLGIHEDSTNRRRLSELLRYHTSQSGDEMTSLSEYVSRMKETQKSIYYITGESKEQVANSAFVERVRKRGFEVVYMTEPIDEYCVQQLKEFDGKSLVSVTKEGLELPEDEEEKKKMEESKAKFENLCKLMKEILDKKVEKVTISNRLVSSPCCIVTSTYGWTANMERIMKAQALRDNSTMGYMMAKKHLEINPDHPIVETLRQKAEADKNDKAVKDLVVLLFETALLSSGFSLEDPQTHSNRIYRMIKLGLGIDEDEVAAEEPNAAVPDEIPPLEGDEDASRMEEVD
T2 sequence (O00170 whole entry partner): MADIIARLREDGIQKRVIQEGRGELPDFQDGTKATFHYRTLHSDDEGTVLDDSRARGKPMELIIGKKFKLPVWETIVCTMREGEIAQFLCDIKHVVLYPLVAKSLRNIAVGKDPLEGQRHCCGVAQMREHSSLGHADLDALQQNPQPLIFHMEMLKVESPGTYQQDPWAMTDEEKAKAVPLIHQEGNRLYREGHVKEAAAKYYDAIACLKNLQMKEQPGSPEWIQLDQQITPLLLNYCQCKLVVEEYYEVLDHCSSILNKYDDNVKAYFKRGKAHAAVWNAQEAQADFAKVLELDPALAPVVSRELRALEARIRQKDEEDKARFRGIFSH
T2 sequence (Q15185 whole entry partner): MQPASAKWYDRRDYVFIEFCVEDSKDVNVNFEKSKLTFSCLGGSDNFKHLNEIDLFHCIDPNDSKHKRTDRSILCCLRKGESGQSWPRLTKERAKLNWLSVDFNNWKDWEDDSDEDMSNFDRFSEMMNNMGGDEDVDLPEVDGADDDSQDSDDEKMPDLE
Experimental: as §1
On the other hand, the AAPH cells, which were stably co-transfected with AHR-RL, AIP-HIS, P23-HIS and HSP-90YFP, were prepared and then mixed with different concentrations of 3MC and cultured in a 96-well white polystyrene plate (Corning, USA) at 37° C.

AHR-RL = target: T3, AHR-RL (Homo sapiens, UniProt P35869); test: Renilla luciferase signal of AHR-RL in cell-free AAPA whole cell lysate; assay type: biochemical; conditions: for detection limits / Renilla luciferase signals in the cell-free system: AAPA cell free lysate, 37° C.; for Renilla luciferase signals in the cell-free system: dose-dependent (FIGS. 4 and 5); for lowest concentration at which AHR-RL signal degradation can be detected: cell-free system
T3 construct: expressed in transfected cells; host or cells: sonicated, cleared lysate of tetracycline-induced AAPA cells (T-REx cells, Invitrogen)
T3 sequence (P35869 11-848): as the sequence (P35869 11-848) above
T3 sequence (P08238 whole entry partner): as the sequence (P08238 whole entry partner) above
T3 sequence (O00170 whole entry partner): as the sequence (O00170 whole entry partner) above
T3 sequence (Q15185 whole entry partner): as the sequence (Q15185 whole entry partner) above
Experimental: 5×10^6 AAPA cells obtained in Example 4 were cultured in a 15 cm dish containing 25 ml DMEM medium supplemented with 10% FBS and 3.5 μg/ml tetracycline for 24 hrs. The cells were harvested and re-suspended in 10 ml cold PBS. The cells were lysed by sonication on ice using sonicator (Branson, Danbury Conn., USA) at amplitude of 10% for 30 cycles of 5 sec on and 15 sec off. The cellular debris was removed by centrifugation at 1,000 g for 10 min. For detection, 90 μl cell free lysates and different concentrations of 3MC were mixed and cultured in 96 well white polystyrene plate (Corning, USA) at room temperature. Renilla luciferase signals were determined by addition of coelenterazine to a final concentration of 0.35 μM. The result for detecting TCDD was shown in FIG. 3 (y=136.97x+2251.9, R^2=0.9794).
In addition, the cell free lysates and different concentrations of 3MC and TCDD were mixed and cultured in 96 well white polystyrene plate (Costar) at 37° C., respectively.

T1 sequence (P35869 11-848): as the sequence (P35869 11-848) above
T1 sequence (P08238 whole entry partner): as the sequence (P08238 whole entry partner) above
T1 sequence (O00170 whole entry partner): as the sequence (O00170 whole entry partner) above
T1 sequence (Q15185 whole entry partner): as the sequence (Q15185 whole entry partner) above

SMILES | BRET signals (AHR-RL and ARNT-YFP; AAPA cells, different concentrations, 37° C. for 1 hour, dose-dependent (FIG. 2B)) | concentration at which BRET signal induction was first observed (AHR-RL and ARNT-YFP) | BRET signals (AHR-RL and HSP90-YFP) | detection limits (AHR-RL) | Renilla luciferase signals in the cell-free system (AHR-RL) | lowest concentration at which AHR-RL signal degradation can be detected (AHR-RL)
Cc1ccc2cc3c(ccc4ccccc43)c3c2c1CC3 [3MC, 3-methylcholanthrene] | increased | 1 pM | suppressed | 10^−16 M | increased | 10 aM
Clc1cc2c(cc1Cl)Oc1cc(Cl)c(Cl)cc1O2 [TCDD, 2,3,7,8-tetrachlorodibenzo-p-dioxin] |  | 1 pM |  | 10^−16 M | increased | 10 aM
